Results reported in patent US12427171B2, “Krill oil composition enriched in LPC-DHA and LPC-EPA” (Aker BioMarine Human Ingredients AS, priority 2020, dated 2025).

Experiment: Mouse retinal fatty acid composition after daily gavage of free DHA, sn-1 DHA LPC or sn-2 DHA LPC for 30 days (GC/MS)
Type: in vivo
Conditions: for fatty acid composition of mouse retina, 12:0, Mean ± S.D. / fatty acid composition of mouse retina, 14:0, Mean ± S.D. / fatty acid composition of mouse retina, 16:0, Mean ± S.D. / fatty acid composition of mouse retina, 16:0 DMA, Mean ± S.D. / fatty acid composition of mouse retina, 16:1 (n-7), Mean ± S.D. / fatty acid composition of mouse retina, 17:1 (n-7), Mean ± S.D. / fatty acid composition of mouse retina, 18:0, Mean ± S.D. / fatty acid composition of mouse retina, 18:0 DMA, Mean ± S.D. / fatty acid composition of mouse retina, 18:1(n-7), Mean ± S.D. / fatty acid composition of mouse retina, 18:1 (n-9), Mean ± S.D. / fatty acid composition of mouse retina, 18:1 DMA, Mean ± S.D. / fatty acid composition of mouse retina, 18:2 (n-6), Mean ± S.D. / fatty acid composition of mouse retina, 18:3 (n-3), Mean ± S.D. / fatty acid composition of mouse retina, 18:3 (n-6), Mean ± S.D. / fatty acid composition of mouse retina, 20:0, Mean ± S.D. / fatty acid composition of mouse retina, 20:1 (n-9), Mean ± S.D. / fatty acid composition of mouse retina, 20:2 (n-6), Mean ± S.D. / fatty acid composition of mouse retina, 20:3 (n-6), Mean ± S.D. / fatty acid composition of mouse retina, 20:4 (n-6), Mean ± S.D. / fatty acid composition of mouse retina, 20:5 (n-3), Mean ± S.D. / fatty acid composition of mouse retina, 22:0, Mean ± S.D. / fatty acid composition of mouse retina, 22:2 (n-6), Mean ± S.D. / fatty acid composition of mouse retina, 22:4 (n-6), Mean ± S.D. / fatty acid composition of mouse retina, 22:5 (n-3), Mean ± S.D. / fatty acid composition of mouse retina, 22:6 (n-3), Mean ± S.D. / fatty acid composition of mouse retina, 24:1 (n-9), Mean ± S.D.: 1 mg DHA daily by gavage
Method: Normal male mice (C57 BL/J6, 16-week-old) were gavaged daily with 1 mg DHA in the form of free DHA, sn-1 DHA LPC, or sn-2 DHA LPC in 80 μL corn oil for 30 days. Retinal FA composition was analyzed by GC/MS. Only the values for arachidonic acid and the omega-3 FA are shown here (mean±SD, 8 animals/group). […] SD: standard deviation; sn-1 and sn-2: stereospecific numbering 1 and 2 respectively; LPC: lysophosphatidylcholine; DHA: docosahexaenoic acid.
Animals and dietary treatments: All studies in animals described here were approved by the Institutional Animal Care and Use Committee of the University of Illinois at Chicago. The retina samples were obtained from our previous studies on the brain accretion of DHA in mice and rats, which were published previously. Male Sprague-Dawley rats (8-week-old) were purchased from Harlan laboratories (Indianapolis, IN, USA). Male C57 BL/J6 mice (2-4-months-old) were purchased from Jackson Laboratories (Bar Harbor. Maine).
In the first study, male Sprague-Dawley rats (n=5 per group, 8-week-old) were gavaged daily with 10 mg of DHA (40 mg DHA/kg body weight) in the form of TAG-DHA (DHASCO algal oil, DSM Nutritional Products, Columbia, MD, USA), synthetic di-DHA PC (phosphatidylcholine), or synthetic LPC-DHA (sn-1 acyl) for 30 days. The DHA was distributed equally among the three positions of TAG-DHA [17]. […] In the second study, 4-month-old male C57 BL/J6 mice (n=8 per group) were gavaged daily with 40 mg DHA/kg body weight in the form of free (unesterified) DHA, sn-1 acyl LPC-DHA, or sn-2 acyl LPC-DHA for 30 days as described previously. In the third study, male C57 BL/J6 mice (2-months-old, n=5 per group) were fed diets enriched with natural or lipase-treated fish oil or hill oil for 30 days. The total amount of omega-3 FA (eicosapentaenoic acid (EPA)+DHA) was 2.64 g/kg diet in all the diets. The untreated hill oil contained 18% of total omega-3 FA as LPC, whereas the lipase-treated hill oil contained >80% of the total omega-3 FA as LPC. The fish oil diets contained no LPC-EPA or LPC-DHA. The animals were trans-cardially perfused with ice cold phosphate buffered saline under anesthesia and the retinas were collected and kept frozen at −80° C. until the analysis.
Analytical procedures: The total lipids of retina were extracted by Bligh and Dyer procedure and the fatty acids were methylated using methanolic HCl. The fatty acid analysis was carried out by GC/MS (gas chromatography/mass spectroscopy) using Shimadzu QP2010SE equipped with Supelco Omegawax column, as described previously. Total ion current in the range of 50-400 m/z was used for quantification of the methyl esters. For LC/MS/MS (liquid chromatography/tandem mass spectroscopy) analysis, the lipids were extracted by the procedure of Ivanova et al.. The analysis of molecular species of phospholipids was performed on an ABSciex QTRAP mass spectrometer (Redwood City, CA, USA) coupled with Agilent 2600 UPLC system (Santa Clara, CA, USA), by multiple reaction monitoring. The internal standards 17:0 LPC, di 17:0 PC, and di 17:0 PE (phosphatidylethanolamine) were used for the quantification of the corresponding molecular species, without applying any correction factors for the differences in the ion intensity of different molecular species.
Statistics and correlations: The significance of differences between treatment groups was determined by a one-way ANOVA, with Tukey post-hoc multiple comparison corrections or unpaired t-test between control and treated samples adjusted with Holm-Sidak method (Graphpad Prism 8.0, San Diego, CA, USA).

CC/C=C\C/C=C\C/C=C\C/C=C\C/C=C\C/C=C\CCC(=O)O [Free DHA, docosahexaenoic acid]
fatty acid composition of mouse retina, 12:0, Mean ± S.D.: 0.60 ± 0.35 | fatty acid composition of mouse retina, 14:0, Mean ± S.D.: 0.20 ± 0.17 | fatty acid composition of mouse retina, 16:0, Mean ± S.D.: 16.11 ± 1.56 | fatty acid composition of mouse retina, 16:0 DMA, Mean ± S.D.: 0.75 ± 0.56 | fatty acid composition of mouse retina, 16:1 (n-7), Mean ± S.D.: 0.55 ± 0.28 | fatty acid composition of mouse retina, 17:1 (n-7), Mean ± S.D.: 0.43 ± 0.16 | fatty acid composition of mouse retina, 18:0, Mean ± S.D.: 17.32 ± 0.66 | fatty acid composition of mouse retina, 18:0 DMA, Mean ± S.D.: 2.10 ± 0.88 | fatty acid composition of mouse retina, 18:1(n-7), Mean ± S.D.: 4.18 ± 0.34 | fatty acid composition of mouse retina, 18:1 (n-9), Mean ± S.D.: 17.14 ± 0.78 | fatty acid composition of mouse retina, 18:1 DMA, Mean ± S.D.: 0.85 ± 0.56 | fatty acid composition of mouse retina, 18:2 (n-6), Mean ± S.D.: 0.99 ± 0.65 | fatty acid composition of mouse retina, 18:3 (n-3), Mean ± S.D.: 0.49 ± 0.15 | fatty acid composition of mouse retina, 18:3 (n-6), Mean ± S.D.: 0.49 ± 0.36 | fatty acid composition of mouse retina, 20:0, Mean ± S.D.: 1.90 ± 0.64 | fatty acid composition of mouse retina, 20:1 (n-9), Mean ± S.D.: 3.42 ± 0.59 | fatty acid composition of mouse retina, 20:2 (n-6), Mean ± S.D.: 0.71 ± 0.50 | fatty acid composition of mouse retina, 20:3 (n-6), Mean ± S.D.: 1.30 ± 0.66 | fatty acid composition of mouse retina, 20:4 (n-6), Mean ± S.D.: 7.42 ± 0.72 | fatty acid composition of mouse retina, 20:5 (n-3), Mean ± S.D.: 2.03 ± 1.21 | fatty acid composition of mouse retina, 22:0, Mean ± S.D.: 1.08 ± 0.59 | fatty acid composition of mouse retina, 22:2 (n-6), Mean ± S.D.: 0.77 ± 0.51 | fatty acid composition of mouse retina, 22:4 (n-6), Mean ± S.D.: 2.51 ± 0.85 | fatty acid composition of mouse retina, 22:5 (n-3), Mean ± S.D.: 0.42 ± 0.15 | fatty acid composition of mouse retina, 22:6 (n-3), Mean ± S.D.: 15.74 ± 1.57 | fatty acid composition of mouse retina, 24:1 (n-9), Mean ± S.D.: 0.51 ± 0.25 | effect on retinal DHA (mice, 1 mg DHA daily): no effect

CC/C=C\C/C=C\C/C=C\C/C=C\C/C=C\C/C=C\CCC(=O)OC[C@@H](O)COP(=O)([O-])OCC[N+](C)(C)C [sn-1 DHA LPC]
fatty acid composition of mouse retina, 12:0, Mean ± S.D.: 0.73 ± 0.47 | fatty acid composition of mouse retina, 14:0, Mean ± S.D.: 0.30 ± 0.17 | fatty acid composition of mouse retina, 16:0, Mean ± S.D.: 14.62 ± 1.22 | fatty acid composition of mouse retina, 16:0 DMA, Mean ± S.D.: 1.02 ± 0.32 | fatty acid composition of mouse retina, 16:1 (n-7), Mean ± S.D.: 0.47 ± 0.34 | fatty acid composition of mouse retina, 17:1 (n-7), Mean ± S.D.: 0.48 ± 0.38 | fatty acid composition of mouse retina, 18:0, Mean ± S.D.: 15.44 ± 1.50 | fatty acid composition of mouse retina, 18:0 DMA, Mean ± S.D.: 1.96 ± 0.30 | fatty acid composition of mouse retina, 18:1(n-7), Mean ± S.D.: 3.82 ± 0.62 | fatty acid composition of mouse retina, 18:1 (n-9), Mean ± S.D.: 15.56 ± 1.16 | fatty acid composition of mouse retina, 18:1 DMA, Mean ± S.D.: 0.78 ± 0.64 | fatty acid composition of mouse retina, 18:2 (n-6), Mean ± S.D.: 1.38 ± 0.49 | fatty acid composition of mouse retina, 18:3 (n-3), Mean ± S.D.: 0.51 ± 0.42 | fatty acid composition of mouse retina, 18:3 (n-6), Mean ± S.D.: 0.60 ± 0.47 | fatty acid composition of mouse retina, 20:0, Mean ± S.D.: 1.18 ± 0.72 | fatty acid composition of mouse retina, 20:1 (n-9), Mean ± S.D.: 2.87 ± 0.60 | fatty acid composition of mouse retina, 20:2 (n-6), Mean ± S.D.: 0.88 ± 0.95 | fatty acid composition of mouse retina, 20:3 (n-6), Mean ± S.D.: 1.44 ± 0.35 | fatty acid composition of mouse retina, 20:4 (n-6), Mean ± S.D.: 5.75 ± 0.71 | fatty acid composition of mouse retina, 20:5 (n-3), Mean ± S.D.: 1.91 ± 1.40 | fatty acid composition of mouse retina, 22:0, Mean ± S.D.: 1.24 ± 0.95 | fatty acid composition of mouse retina, 22:2 (n-6), Mean ± S.D.: 1.00 ± 0.76 | fatty acid composition of mouse retina, 22:4 (n-6), Mean ± S.D.: 2.23 ± 0.87 | fatty acid composition of mouse retina, 22:5 (n-3), Mean ± S.D.: 0.79 ± 0.76 | fatty acid composition of mouse retina, 22:6 (n-3), Mean ± S.D.: 22.57 ± 3.12 | fatty acid composition of mouse retina, 24:1 (n-9), Mean ± S.D.: 0.49 ± 0.17

CC/C=C\C/C=C\C/C=C\C/C=C\C/C=C\C/C=C\CCC(=O)O[C@H](CO)COP(=O)([O-])OCC[N+](C)(C)C [sn-2 DHA LPC]
fatty acid composition of mouse retina, 12:0, Mean ± S.D.: 0.73 ± 0.47 | fatty acid composition of mouse retina, 14:0, Mean ± S.D.: 0.30 ± 0.17 | fatty acid composition of mouse retina, 16:0, Mean ± S.D.: 14.62 ± 1.22 | fatty acid composition of mouse retina, 16:0 DMA, Mean ± S.D.: 1.02 ± 0.32 | fatty acid composition of mouse retina, 16:1 (n-7), Mean ± S.D.: 0.47 ± 0.34 | fatty acid composition of mouse retina, 17:1 (n-7), Mean ± S.D.: 0.48 ± 0.38 | fatty acid composition of mouse retina, 18:0, Mean ± S.D.: 15.44 ± 1.50 | fatty acid composition of mouse retina, 18:0 DMA, Mean ± S.D.: 1.96 ± 0.30 | fatty acid composition of mouse retina, 18:1(n-7), Mean ± S.D.: 3.82 ± 0.62 | fatty acid composition of mouse retina, 18:1 (n-9), Mean ± S.D.: 15.56 ± 1.16 | fatty acid composition of mouse retina, 18:1 DMA, Mean ± S.D.: 0.78 ± 0.64 | fatty acid composition of mouse retina, 18:2 (n-6), Mean ± S.D.: 1.38 ± 0.49 | fatty acid composition of mouse retina, 18:3 (n-3), Mean ± S.D.: 0.51 ± 0.42 | fatty acid composition of mouse retina, 18:3 (n-6), Mean ± S.D.: 0.60 ± 0.47 | fatty acid composition of mouse retina, 20:0, Mean ± S.D.: 1.18 ± 0.72 | fatty acid composition of mouse retina, 20:1 (n-9), Mean ± S.D.: 2.87 ± 0.60 | fatty acid composition of mouse retina, 20:2 (n-6), Mean ± S.D.: 0.88 ± 0.95 | fatty acid composition of mouse retina, 20:3 (n-6), Mean ± S.D.: 1.44 ± 0.35 | fatty acid composition of mouse retina, 20:4 (n-6), Mean ± S.D.: 5.75 ± 0.71 | fatty acid composition of mouse retina, 20:5 (n-3), Mean ± S.D.: 1.91 ± 1.40 | fatty acid composition of mouse retina, 22:0, Mean ± S.D.: 1.24 ± 0.95 | fatty acid composition of mouse retina, 22:2 (n-6), Mean ± S.D.: 1.00 ± 0.76 | fatty acid composition of mouse retina, 22:4 (n-6), Mean ± S.D.: 2.23 ± 0.87 | fatty acid composition of mouse retina, 22:5 (n-3), Mean ± S.D.: 0.79 ± 0.76 | fatty acid composition of mouse retina, 22:6 (n-3), Mean ± S.D.: 22.57 ± 3.12 | fatty acid composition of mouse retina, 24:1 (n-9), Mean ± S.D.: 0.49 ± 0.17
